Results reported in patent US20250019387A1 (Frontier Medicines Corporation, priority 0001, published 2025).

Each compound was assayed against KRAS G12C and cRAF (Ras-binding domain) interaction (Homo sapiens (Human), UniProt P01116, C118S/C51S/C80L/G12C) (assay: Inhibition of KRAS G12C and cRAF binding (AlphaScreen)). Conditions: additional exemplary compounds; KRAS G12C and cRAF binding; read-out: RAF1 RBD IC50.
Protocol: Compounds were diluted in 100% DMSO and each compound concentration was spotted at 200 nl/well onto low volume, white 384 well plates. […] Plates were incubated for 19-20 hours. A mixture of RBD and the AlphaScreen streptavidin donor and glutathione acceptor beads diluted in 25 mM Hepes, pH 7.4, 150 mM NaCl, 5 mM MgCl2, 0.01% TritonX-100 and 2% DMSO was then added at 10 ul/well and incubated for 60-90 minutes before the samples were read for emission at 570 nm after excitation of the donor beads at 680 nm. All incubations were performed at room temperature. […] IC50s were determined using nonlinear regression fit of [inhibitor]vs. response (4 parameters). […]

Chain of KRAS G12C and cRAF (Ras-binding domain) interaction (P01116 other isoform, or with tags, fused parts or gaps G12C/C51S/C80L/C118S): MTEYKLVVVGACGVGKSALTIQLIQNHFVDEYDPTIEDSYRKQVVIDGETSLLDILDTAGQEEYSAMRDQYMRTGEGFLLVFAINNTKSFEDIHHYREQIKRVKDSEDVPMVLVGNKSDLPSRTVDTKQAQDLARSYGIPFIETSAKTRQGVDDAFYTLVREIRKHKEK

| SMILES | IC50 |
| --- | --- |
| C=CC(=O)N1CC[C@H]1CN(C)c1nc(OC[C@@]23CCCN2C[C@H](F)C3)nc2c(F)c(-c3cccc4cccc(Cl)c34)ncc12 | > 500 nM |
| C=CC(=O)N(C)C[C@H]1CCN1c1nc(OC[C@@]23CCCN2C[C@H](F)C3)nc2c(F)c(-c3cccc4cccc(Cl)c34)ncc12 | > 500 nM |
| C=CC(=O)N(C)C[C@@H]1CCN1c1nc(OC[C@@]23CCCN2C[C@H](F)C3)nc2c(F)c(-c3cccc4cccc(Cl)c34)ncc12 | > 500 nM |
| Cc1cc(/C=C/C(=O)N2CC[C@@H](N(C)c3nc(OCC45CCCN4CCC5)nc4c(F)c(-c5cccc6cccc(Cl)c56)ncc34)C2)on1 | > 500 nM |
| CN(c1nc(OCC23CCCN2CCC3)nc2c(F)c(-c3cccc4cccc(Cl)c34)ncc12)[C@@H]1CCN(C(=O)/C=C/c2ncn(C)n2)C1 | > 500 nM |
| CN(c1nc(OCC23CCCN2CCC3)nc2c(F)c(-c3cccc4cccc(Cl)c34)ncc12)[C@@H]1CCN(C(=O)/C=C/c2cn(C)nn2)C1 | > 500 nM |
| C=CC(=O)N1CC(CN(C)c2nc(OC[C@@]34CCCN3C[C@@H](F)C4)nc3c(F)c(-c4cccc5cccc(Cl)c45)ncc23)C1 | > 500 nM |
| C=CC(=O)N1CC[C@@H](N(C)c2nc(OC[C@@]34CCCN3C[C@@H](F)C4)nc3c(F)c(-c4cccc5cccc(Cl)c45)ncc23)C1 | > 500 nM |
| C=CC(=O)N1CC[C@@H](N(C)c2nc(OC[C@@]34CCCN3C[C@@H](F)C4)nc3c2CCN(c2cccc4cccc(Cl)c24)C3)C1 | > 500 nM |
| N#CN1C2CCC1CN(c1nc(OC[C@@]34CCCN3C[C@H](F)C4)nc3c1CCN(c1cccc4cccc(Cl)c14)C3)C2 | > 500 nM |
| N#CN1C2CCC1CN(c1nc(OC[C@@]34CCCN3C[C@H](F)C4)nc3c1CCN(c1cccc4ccc(F)c(Cl)c14)C3)C2 | > 500 nM |
| C=CC(=O)N(C)CC1CCN1c1nc(OC[C@@]23CCCN2C[C@H](F)C3)nc2c(F)c(-c3cccc4cccc(Cl)c34)ncc12 (stereo partly shown) | > 500 nM |
| C=CC(=O)N1CC[C@@H](N(C)c2nc(OC[C@]34CCCN3C[C@H](F)C4)nc3c2CCN(c2cccc4cccc(Cl)c24)C3)C1 | > 500 nM |
| C=CC(=O)N1CC(CN(C)c2nc(OC[C@@]34CCCN3C[C@@H](F)C4)nc3c2CCN(c2cccc4cccc(Cl)c24)C3)C1 | > 500 nM |
| C=CC(=O)N1C2CCC1CN(c1nc(OCC34CCCN3CCC4)nc3c1CCN(c1cccc4cccc(Cl)c14)C3)C2 | > 500 nM |
| C=CC(=O)N1C[C@H]2C[C@@H]1CN2c1nc(OCC23CCCN2CCC3)nc2c1CCN(c1cccc3cccc(Cl)c13)C2 | > 500 nM |
| C=CC(=O)N1C[C@@H]2C[C@H]1CN2c1nc(OCC23CCCN2CCC3)nc2c1CCN(c1cccc3cccc(Cl)c13)C2 | > 500 nM |
| C=CC(=O)N1C[C@H](N(C)c2nc(OCC34CCCN3CCC4)nc3c2CCN(c2cccc4cccc(Cl)c24)C3)C[C@H]1CC#N | > 500 nM |
| C=CC(=O)N1CC[C@@H]1CN(C)c1nc(OC[C@@]23CCCN2C[C@H](F)C3)nc2c1CCN(c1cccc3cccc(Cl)c13)C2 | > 500 nM |
| CN(c1nc(OCC23CCCN2CCC3)nc2c(F)c(-c3cccc4cccc(Cl)c34)ncc12)[C@@H]1CCN(C(=O)/C=C/c2ncccn2)C1 | > 500 nM |
| C=CC(=O)N1CC[C@@H](Nc2nc(OC[C@@]34CCCN3C[C@H](F)C4)nc3c(F)c(-c4cccc5cccc(Cl)c45)ncc23)C1 | > 500 nM |

| SMILES | IC50 |
| --- | --- |
| C=CC(=O)N1CC[C@H](Nc2nc(OC[C@@]34CCCN3C[C@H](F)C4)nc3c(F)c(-c4cccc5cccc(Cl)c45)ncc23)C1 | > 500 nM |
| C=CC(=O)N1CC[C@H](Nc2nc(OC[C@@]34CCCN3C[C@H](F)C4)nc3c2CCN(c2cccc4cccc(Cl)c24)C3)C1 | > 500 nM |
| CN(c1nc(OC[C@@]23CCCN2C[C@H](F)C3)nc2c(F)c(-c3cccc4cccc(Cl)c34)ncc12)[C@@H]1CCN(C(=O)/C=C/c2ncn(C)n2)C1 | > 500 nM |
| CN(c1nc(OCC23CCCN2CCC3)nc2c(F)c(-c3cccc4cccc(Cl)c34)ncc12)[C@@H]1CCN(C(=O)/C=C/c2ccncn2)C1 | > 500 nM |
| CN(c1nc(OCC23CCCN2CCC3)nc2c(F)c(-c3cccc4cccc(Cl)c34)ncc12)[C@@H]1CCN(C(=O)/C=C/c2cnccn2)C1 | > 500 nM |
| C=CC(=O)N1CC[C@@H](Nc2nc(OC[C@@]34CCCN3C[C@H](F)C4)nc3c2CCN(c2cccc4cccc(Cl)c24)C3)C1 | > 500 nM |
| C=CC(=O)N1CC(CNc2nc(OC[C@@]34CCCN3C[C@H](F)C4)nc3c2CCN(c2cccc4cccc(Cl)c24)C3)C1 | > 500 nM |
| CN(c1nc(OC[C@@]23CCCN2C[C@H](F)C3)nc2c1CCN(c1cccc3cccc(Cl)c13)C2)[C@@H]1CCN(C(=O)/C=C/c2ncn(C)n2)C1 | > 500 nM |
| C=CC(=O)N1CC(CN(C)c2nc(OC[C@@]34CCCN3C[C@H](O)C4)nc3c(F)c(-c4cccc5cccc(Cl)c45)ncc23)C1 | > 500 nM |
| C=CC(=O)N1C[C@@H](F)[C@@H](N(C)c2nc(OC[C@@]34CCCN3C[C@H](F)C4)nc3c(F)c(-c4cccc5cccc(Cl)c45)ncc23)C1 | > 500 nM |
| C=CC(=O)N1CC[C@@H](N(C)c2nc(OC[C@@]34CCCN3C[C@H](F)C4)nc3c(F)c(-c4cc(OC(F)F)cc5ccccc45)ncc23)C1 | > 500 nM |
| CN(c1nc(OCC23CCCN2CCC3)nc2c(F)c(-c3cccc4cccc(Cl)c34)ncc12)[C@@H]1CCN(C(=O)/C=C/c2nnn(C)n2)C1 | > 500 nM |
| C=CC(=O)N1CC[C@@H](N(C)c2nc(OC[C@@]34CCCN3C[C@H](F)C4)nc3c(F)c(-c4cc(C(F)F)cc5ccccc45)ncc23)C1 | > 500 nM |
| C=CC(=O)N1C[C@@H](F)[C@H](N(C)c2nc(OC[C@@]34CCCN3C[C@H](F)C4)nc3c(F)c(-c4cccc5cccc(Cl)c45)ncc23)C1 | > 500 nM |
| CN(c1nc(OC[C@@]23CCCN2C[C@H](F)C3)nc2c(F)c(-c3cccc4cccc(Cl)c34)ncc12)[C@@H]1CCN(C(=O)/C=C/c2ccncn2)C1 | > 500 nM |
| CN(c1nc(OC[C@@]23CCCN2C[C@H](F)C3)nc2c1CCN(c1cccc3cccc(Cl)c13)C2)[C@@H]1CCN(C(=O)/C=C/c2ccncn2)C1 | > 500 nM |
| Cc1nsc(/C=C/C(=O)N2C[C@@H](F)[C@H](N(C)c3nc(OC[C@@]45CCCN4C[C@H](F)C5)nc4c(F)c(-c5cccc6cccc(Cl)c56)ncc34)C2)n1 | > 500 nM |
| Cc1nccc(/C=C/C(=O)N2C[C@@H](F)[C@H](N(C)c3nc(OC[C@@]45CCCN4C[C@H](F)C5)nc4c(F)c(-c5cccc6cccc(Cl)c56)ncc34)C2)n1 | > 500 nM |
| CN(c1nc(OC[C@@]23CCCN2C[C@H](F)C3)nc2c(F)c(-c3cccc4cccc(Cl)c34)ncc12)[C@@H]1CCN(C(=O)/C=C/c2ncc(F)cn2)C1 | > 500 nM |
| C=CC(=O)N1C[C@@H](O)[C@@H](Nc2nc(OC[C@@]34CCCN3C[C@H](F)C4)nc3c(F)c(-c4cccc5cccc(Cl)c45)ncc23)C1 | > 500 nM |

Results, then the compound that gave them:

| IC50 | SMILES |
| --- | --- |
| 10 to 100 nM | CN(C)C/C=C/S(=O)(=O)CCN(C)c1nc(OC[C@@H]2CCCN2C)nc2c(F)c(-c3cccc4cccc(Cl)c34)ncc12 |
| > 500 nM | CN(CCS(=O)(=O)/C=C/CN1CCC(F)(F)C1)c1nc(OC[C@@H]2CCCN2C)nc2c(F)c(-c3cccc4cccc(Cl)c34)ncc12 |
| > 500 nM | CN1CCC[C@H]1COc1nc(N(C)[C@@H]2CCN(C(=O)/C=C/CN3CC(F)C3)C2)c2cnc(-c3cccc4cccc(Cl)c34)c(F)c2n1 |
| > 500 nM | CCOC/C=C/S(=O)(=O)CCN(C)c1nc(OCC23CCCN2CCC3)nc2c1CCN(c1cccc3cccc(Cl)c13)C2 |
| 100 to 500 nM | C=CC(=O)CN(C)c1nc(OC[C@@H]2CCCN2C)nc2c1CCN(c1cccc3ccccc13)C2 |
| 100 to 500 nM | COC/C=C/C(=O)N1CC[C@@H](N(C)c2nc(OCC34CCCN3CCC4)nc3c2CCN(c2cccc4cccc(Cl)c24)C3)C1 |
| > 500 nM | C=CC(=O)N1C[C@@H](N(C)c2nc(OC[C@@]34CCCN3C[C@H](F)C4)nc3c2CCN(c2cccc4cccc(Cl)c24)C3)C[C@@H]1CC#N |
| > 500 nM | C=CC(=O)N1CCC(N(c2nc(OC[C@@]34CCCN3C[C@H](F)C4)nc3c(F)c(-c4cccc5cccc(Cl)c45)ncc23)C2CC2)C1 (stereo partly shown) |
| > 500 nM | C=CC(=O)N1CCC1CN(C)c1nc(OC[C@@]23CCCN2C[C@H](F)C3)nc2c1CCN(c1cccc3cccc(Cl)c13)C2 (stereo partly shown) |
| > 500 nM | C=CC(=O)N1CC[C@@H]1CN(C)c1nc(OC[C@@]23CCCN2C[C@H](F)C3)nc2c(F)c(-c3cccc4cccc(Cl)c34)ncc12 |
| 100 to 500 nM | C=CC(=O)N1CC(CN(C)c2nc(OC[C@]34CCCN3C[C@H](F)C4)nc3c2CCN(c2cccc4cccc(Cl)c24)C3)C1 |
| 10 to 100 nM | CN(C)C/C=C/S(=O)(=O)CCN(C)c1nc(OC[C@@H]2CCCN2C)nc2c(F)c(-c3cccc4ccc(F)c(Cl)c34)ncc12 |
| 10 to 100 nM | C=CC(=O)N1C[C@H](N(C)c2nc(OC[C@@]34CCCN3C[C@H](F)C4)nc3c(F)c(-c4cccc5cccc(Cl)c45)ncc23)C[C@H]1CC#N |
| 10 to 100 nM | N#CN1CCC(N(c2nc(OC[C@@]34CCCN3C[C@H](F)C4)nc3c(F)c(-c4cccc5cccc(Cl)c45)ncc23)C2CC2)C1 (stereo partly shown) |
| 10 to 100 nM | C=CC(=O)N1C[C@H](N(C)c2nc(OC[C@@]34CCCN3C[C@H](F)C4)nc3c(F)c(-c4cccc5cccc(Cl)c45)ncc23)CC1C#N (stereo partly shown) |
| 100 to 500 nM | C=CC(=O)N1CC(CNc2nc(OC[C@@]34CCCN3C[C@H](F)C4)nc3c(F)c(-c4cccc5cccc(Cl)c45)ncc23)C1 |
| 100 to 500 nM | C=CS(=O)(=O)CCN(C)c1nc(OC[C@@H]2CCCN2C)nc2c1CCN(c1cccc3ccc(F)c(Cl)c13)C2 |
| 100 to 500 nM | CN(c1nc(OC[C@@]23CCCN2C[C@H](F)C3)nc2c(F)c(-c3cccc4ccc(F)c(Cl)c34)ncc12)[C@@H]1CCN(C(=O)/C=C/C2CNC2)C1 |
| 100 to 500 nM | C=CC(=O)N1C[C@H](N(C)c2nc(OC[C@@]34CCCN3C[C@H](F)C4)nc3c2CCN(c2cccc4cccc(Cl)c24)C3)C[C@H]1CC#N |
| 100 to 500 nM | CN(c1nc(OC[C@@]23CCCN2C[C@H](F)C3)nc2c(F)c(-c3cccc4cccc(Cl)c34)ncc12)[C@@H]1CCN(C(=O)/C=C/CN2CCCS2(=O)=O)C1 |
